# Experimental data published in patent US20040063662A1, “Selenophene anti-tumor agents” (priority 1996, published 2004).
# Legend:
# HL-60(TB) = assay: NCI human tumor cell panel: HL-60(TB) (Leukemia); format: cell-based
# K-562 = assay: NCI human tumor cell panel: K-562 (Leukemia); format: cell-based
# SR = assay: NCI human tumor cell panel: SR (Leukemia); format: cell-based
# NCI-H226 = assay: NCI human tumor cell panel: NCI-H226 (Non-Small Cell Lung Cancer); format: cell-based
# NCI-H322M = assay: cells; format: cell-based; settings: Homo sapiens
# NCI-H460 = assay: NCI human tumor cell panel: NCI-H460 (Non-Small Cell Lung Cancer); format: cell-based; settings: NCI-H460, read-out: Log10 TGI (converted)
# COLO 205 = assay: NCI human tumor cell panel: COLO 205 (Colon Cancer); format: cell-based; settings: COLO 205, read-out: Log10 GI50 (converted)
# HCC-2998 = assay: NCI human tumor cell panel: HCC-2998 (Colon Cancer); format: cell-based
# KM12 = assay: NCI human tumor cell panel: KM12 (Colon Cancer); format: cell-based
# SF-268 = assay: NCI human tumor cell panel: SF-268 (CNS Cancer); format: cell-based
# SNB-75 = assay: NCI human tumor cell panel: SNB-75 (CNS Cancer); format: cell-based
# M14 = assay: NCI human tumor cell panel: M14 (Melanoma); format: cell-based
# SK-MEL-2 = assay: NCI human tumor cell panel: SK-MEL-2 (Melanoma); format: cell-based
# SK-MEL-28 = assay: NCI human tumor cell panel: SK-MEL-28 (Melanoma); format: cell-based
# SK-MEL-5 = assay: NCI human tumor cell panel: SK-MEL-5 (Melanoma); format: cell-based
# UACC-257 = assay: NCI human tumor cell panel: UACC-257 (Melanoma); format: cell-based
# IGROV1 = assay: NCI human tumor cell panel: IGROV1 (Ovarian Cancer); format: cell-based
# OVCAR-5 = assay: NCI human tumor cell panel: OVCAR-5 (Ovarian Cancer); format: cell-based
# SK-OV-3 = assay: NCI human tumor cell panel: SK-OV-3 (Ovarian Cancer); format: cell-based
# A498 = assay: NCI human tumor cell panel: A498 (Renal Cancer); format: cell-based
# CAKI-1 = assay: NCI human tumor cell panel: CAKI-1 (Renal Cancer); format: cell-based
# RXF-393 = assay: NCI human tumor cell panel: RXF-393 (Renal Cancer); format: cell-based
# TK-10 = assay: NCI human tumor cell panel: TK-10 (Renal Cancer); format: cell-based
# MCF7 = assay: NCI human tumor cell panel: MCF7 (Breast Cancer); format: cell-based
# MCF7/ADR-RES = assay: NCI human tumor cell panel: MCF7/ADR-RES (Breast Cancer); format: cell-based
# MDA-MB-231/ATCC = assay: NCI human tumor cell panel: MDA-MB-231/ATCC (Breast Cancer); format: cell-based; settings: Homo sapiens, MDA-MB-231, MDA-MB-231/ATCC
# MDA-MB-435 = assay: NCI human tumor cell panel: MDA-MB-435 (Breast Cancer); format: cell-based
# T-47D = assay: NCI human tumor cell panel: T-47D (Breast Cancer); format: cell-based; settings: T47D
# [1] = system: panel of sixty different human tumor cell lines; assay: NCI human tumor cell panel: whole panel (mean graph summary)
# [2] = read-out: Log10 GI50 (converted)
# [3] = read-out: Log10 TGI (converted)
smiles,measurement,setting,value
OCc1ccc(-c2ccc(-c3ccc[se]3)s2)[se]1 [compound 676631],GI50,HL-60(TB); [2],> 100 µM
same,IC (TGI),HL-60(TB); read-out: Log10 TGI,> 100 µM
same,GI50,"K-562; K562, K-562, read-out: Log10 GI50 (converted)",0.102 µM
same,IC (TGI),"K-562; K562, K-562, read-out: Log10 TGI (converted)",> 100 µM
same,GI50,SR; [2],> 100 µM
same,IC (TGI),SR; [3],> 100 µM
same,GI50,"NCI-H226; NCI-H226, read-out: Log10 GI50 (converted)",0.0501 µM
same,IC (TGI),"NCI-H226; NCI-H226, read-out: Log10 TGI (converted)",0.182 µM
same,GI50,NCI-H322M; [2],21.9 µM
same,IC (TGI),NCI-H322M; [3],> 100 µM
same,IC (TGI),NCI-H460,> 100 µM
same,GI50,COLO 205,0.288 µM
same,GI50,"HCC-2998; HCC-2998, read-out: Log10 GI50 (converted)",42.7 µM
same,IC (TGI),"HCC-2998; HCC-2998, read-out: Log10 TGI (converted)",> 100 µM
same,GI50,"KM12; KM12, read-out: Log10 GI50 (converted)",26.9 µM
same,IC (TGI),"KM12; KM12, read-out: Log10 TGI (converted)",> 100 µM
same,GI50,"SF-268; SF-268, read-out: Log10 GI50 (converted)",23.4 µM
same,IC (TGI),"SF-268; SF-268, read-out: Log10 TGI (converted)",64.6 µM
same,GI50,"SNB-75; SNB-75, read-out: Log10 GI50 (converted)",41.7 µM
same,IC (TGI),"SNB-75; SNB-75, read-out: Log10 TGI (converted)",> 100 µM
same,GI50,"M14; M14, read-out: Log10 GI50 (converted)",20 µM
same,IC (TGI),"M14; M14, read-out: Log10 TGI (converted)",> 100 µM
same,GI50,"SK-MEL-2; SK-MEL-2, read-out: Log10 GI50 (converted)",> 100 µM
same,IC (TGI),"SK-MEL-2; SK-MEL-2, read-out: Log10 TGI (converted)",> 100 µM
same,GI50,"SK-MEL-28; SK-MEL-28, read-out: Log10 GI50 (converted)",66.1 µM
same,IC (TGI),"SK-MEL-28; SK-MEL-28, read-out: Log10 TGI (converted)",> 100 µM
same,GI50,"SK-MEL-5; SK-MEL-5, read-out: Log10 GI50 (converted)",> 100 µM
same,IC (TGI),"SK-MEL-5; SK-MEL-5, read-out: Log10 TGI (converted)",> 100 µM
same,GI50,"UACC-257; UACC-257, read-out: Log10 GI50 (converted)",0.0316 µM
same,IC (TGI),"UACC-257; UACC-257, read-out: Log10 TGI (converted)",> 100 µM
same,GI50,"IGROV1; IGROV-1, IGROV1, read-out: Log10 GI50 (converted)",0.0813 µM
same,IC (TGI),"IGROV1; IGROV-1, IGROV1, read-out: Log10 TGI (converted)",0.603 µM
same,GI50,"OVCAR-5; OVCAR-5, read-out: Log10 GI50 (converted)",0.0316 µM
same,IC (TGI),"OVCAR-5; OVCAR-5, read-out: Log10 TGI (converted)",0.209 µM
same,GI50,"SK-OV-3; SK-OV-3, read-out: Log10 GI50 (converted)",45.7 µM
same,IC (TGI),"SK-OV-3; SK-OV-3, read-out: Log10 TGI (converted)",> 100 µM
same,GI50,"A498; A498, read-out: Log10 GI50 (converted)",0.0275 µM
same,IC (TGI),"A498; A498, read-out: Log10 TGI (converted)",0.0832 µM
same,GI50,"CAKI-1; CAKI-1, read-out: Log10 GI50 (converted)",0.0309 µM
same,IC (TGI),"CAKI-1; CAKI-1, read-out: Log10 TGI (converted)",0.191 µM
same,GI50,"RXF-393; RXF-393, read-out: Log10 GI50 (converted)",72.4 µM
same,IC (TGI),"RXF-393; RXF-393, read-out: Log10 TGI (converted)",> 100 µM
same,GI50,"TK-10; TK-10, read-out: Log10 GI50 (converted)",0.0501 µM
same,IC (TGI),"TK-10; TK-10, read-out: Log10 TGI (converted)",0.372 µM
same,GI50,"MCF7; MCF7, read-out: Log10 GI50 (converted)",0.0933 µM
same,IC (TGI),"MCF7; MCF7, read-out: Log10 TGI (converted)",21.9 µM
same,GI50,MCF7/ADR-RES; [2],10 µM
same,IC (TGI),MCF7/ADR-RES; [3],31.6 µM
same,GI50,MDA-MB-231/ATCC; [2],19.1 µM
same,IC (TGI),MDA-MB-231/ATCC; [3],87.1 µM
same,GI50,"MDA-MB-435; MDA-MB-435, read-out: Log10 GI50 (converted)",8.13 µM
same,IC (TGI),"MDA-MB-435; MDA-MB-435, read-out: Log10 TGI (converted)",55 µM
same,GI50,T-47D; [2],0.676 µM
same,IC (TGI),T-47D; [3],> 100 µM
same,GI50,"[1]; Homo sapiens, read-out: Log10 GI50, MG_MID, mean over the panel (converted)",6.61 µM
same,"Log10 LC50, MG_MID",[1]; mean over the panel,−4.15
same,"Log10 TGI, MG_MID",[1]; mean over the panel,−4.47
same,"Log10 TGI, Delta",[1]; whole panel,2.61
same,"Log10 TGI, Range",[1]; whole panel,3.08
